Source: PubChem BioAssay AID330 (DTP/NCI, 2004)
Values joined by “and” are separate entries in the source; they are usually repeats but may differ in a detail not shown here. Identical values can stand only once. Inconclusive results and toxic doses are left out. Rule for the calls: active = survival T/C of 150% or more; inactive = T/C below 125% in these data.

Tested on: P388 leukemia ip, CD2F1 mice, survival T/C
Experiment: NCI In Vivo Anticancer Drug Screen. Data for tumor model P388 Leukemia (intraperitoneal) in CD2F1 (CDF1) mice
Details: endpoint: median survival time, higher = longer survival
Procedure, shortened: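 Mice carrying the transplanted tumor received test compound or vehicle. Survival was recorded in each group, and the value is the treated-group measurement divided by that of the vehicle-treated control group.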

[1] = dose: 50.0 mg/kg/injection, schedule: Q01DX005 (ip), vehicle: saline
[2] = dose: 100.0 mg/kg/injection, schedule: Q01DX005 (ip), vehicle: saline
[3] = dose: 200.0 mg/kg/injection, schedule: Q01DX005 (ip), vehicle: saline
[4] = dose: 15.0 mg/kg/injection, schedule: Q01DX005 (ip), vehicle: saline with Tween-80
[5] = dose: 30.0 mg/kg/injection, schedule: Q01DX005 (ip), vehicle: saline with Tween-80
[6] = dose: 60.0 mg/kg/injection, schedule: Q01DX005 (ip), vehicle: saline with Tween-80
[7] = dose: 240.0 mg/kg/injection, schedule: Q01DX005 (ip), vehicle: saline with Tween-80
[8] = dose: 50.0 mg/kg/injection, schedule: Q01DX009 (ip), vehicle: saline
[9] = dose: 50.0 mg/kg/injection, schedule: Q01DX005 (ip), vehicle: saline with Tween-80
[10] = dose: 100.0 mg/kg/injection, schedule: Q01DX005 (ip), vehicle: saline with Tween-80
[11] = dose: 200.0 mg/kg/injection, schedule: Q01DX005 (ip), vehicle: saline with Tween-80
[12] = dose: 100.0 mg/kg/injection, schedule: Q01DX009 (ip), vehicle: saline with Tween-80
[13] = dose: 200.0 mg/kg/injection, schedule: Q01DX009 (ip), vehicle: saline with Tween-80
[14] = dose: 50.0 mg/kg/injection, schedule: Q01DX005 (ip), vehicle: Klucel (hydroxypropylcellulose) (HPC)
[15] = dose: 100.0 mg/kg/injection, schedule: Q01DX005 (ip), vehicle: Klucel (hydroxypropylcellulose) (HPC)
[16] = dose: 200.0 mg/kg/injection, schedule: Q01DX005 (ip), vehicle: Klucel (hydroxypropylcellulose) (HPC)
[17] = dose: 120.0 mg/kg/injection, schedule: Q01DX005 (ip), vehicle: saline with Tween-80
[18] = dose: 100.0 mg/kg/injection, schedule: Q01DX009 (ip), vehicle: saline

Measured: T/C

CC(CO)CC(C)(C)C (stereo unspecified)
inactive: dose: 25.0 mg/kg/injection, schedule: Q01DX005 (ip), vehicle: saline 101 % of control | [1] 108 % of control | [2] 104 % of control | [3] 109 % of control

C=C1C(=O)OC2CCC3OC(C)(C)OC3C12 (stereo unspecified)
inactive: dose: 12.5 mg/kg/injection, schedule: Q01DX009 (ip), vehicle: DMSO 95 % of control | dose: 25.0 mg/kg/injection, schedule: Q01DX009 (ip), vehicle: DMSO 122 % of control | dose: 50.0 mg/kg/injection, schedule: Q01DX009 (ip), vehicle: DMSO 101 % of control | dose: 100.0 mg/kg/injection, schedule: Q01DX009 (ip), vehicle: DMSO 110 % of control | dose: 200.0 mg/kg/injection, schedule: Q01DX009 (ip), vehicle: DMSO 113 % of control

CCc1cc(/C=C2/OC(=O)c3ccccc32)cc(CC)c1O
inactive: dose: 100.0 mg/kg/injection, schedule: Q04DX002 (ip), vehicle: saline 101 % of control | dose: 200.0 mg/kg/injection, schedule: Q04DX002 (ip), vehicle: saline 100 % of control | dose: 400.0 mg/kg/injection, schedule: Q04DX002 (ip), vehicle: saline 100 % of control

COc1cccc2c1C(=O)c1c(O)c3c(c(O)c1C2=O)C[C@@H](C(=O)CO)C[C@@H]3OC1CC(N)C(O)C(C)O1 (stereo partly specified)
inactive: dose: 6.25 mg/kg/injection, schedule: Q04DX003 (ip), vehicle: water 105 % of control | dose: 12.5 mg/kg/injection, schedule: Q04DX003 (ip), vehicle: water 105 % of control | dose: 25.0 mg/kg/injection, schedule: Q04DX003 (ip), vehicle: water 124 % of control

Cc1c(-c2ccccc2)ccnc1/C=N/NC(=S)NCCCN(C)C
inactive: dose: 12.5 mg/kg/injection, schedule: Q01DX009 (ip), vehicle: other 105 % of control | dose: 25.0 mg/kg/injection, schedule: Q01DX009 (ip), vehicle: other 114 % of control | dose: 50.0 mg/kg/injection, schedule: Q01DX009 (ip), vehicle: other 101 % of control and 112 % of control

C=c1cc2c(cc1=C)C(=O)c1ccccc1C2=O
inactive: [4] 89 % of control | [5] 90 % of control | [6] 86 % of control and 91 % of control | [7] 89 % of control

COC1OC(CO)C2OC12 (stereo unspecified)
inactive: [1] 93 % of control and 103 % of control | [2] 94 % of control and 100 % of control | [3] 88 % of control and 99 % of control

CC1/C(=N\Nc2ccc([N+](=O)[O-])cc2)CC2C3(C)CCC2(C(C)C(=O)O)C(=O)C13 (stereo unspecified)
inactive: dose: 100.0 mg/kg/injection, schedule: Q04DX003 (ip), vehicle: saline 93 % of control | dose: 200.0 mg/kg/injection, schedule: Q04DX003 (ip), vehicle: saline 93 % of control | dose: 400.0 mg/kg/injection, schedule: Q04DX003 (ip), vehicle: saline 95 % of control

CC(=O)/C=C(\C)Nc1ccccc1
inactive: dose: 12.5 mg/kg/injection, schedule: Q01DX009 (ip), vehicle: saline 106 % of control | dose: 25.0 mg/kg/injection, schedule: Q01DX009 (ip), vehicle: saline 102 % of control | [8] 91 % of control and 97 % of control | dose: 200.0 mg/kg/injection, schedule: Q01DX009 (ip), vehicle: saline 97 % of control

COC(=O)c1ccc(C(=O)OC)c2nc3cc([N+](=O)[O-])ccc3nc12
inactive: dose: 60.0 mg/kg/injection, schedule: Q01DX005 (ip), vehicle: suspension in saline 100 % of control | dose: 120.0 mg/kg/injection, schedule: Q01DX005 (ip), vehicle: suspension in saline 102 % of control

CCOC(=O)C1(C)C(=O)CC(c2ccccc2)CC1c1ccccc1 (stereo unspecified)
inactive: [9] 100 % of control | [10] 96 % of control | [11] 99 % of control

C[CH2][Sn]([O][Sn]([Cl])([CH2]C)[c]1ccccc1)[c]1ccccc1 (stereo unspecified)
inactive: dose: 3.12 mg/kg/injection, schedule: Q01DX005 (ip), vehicle: Klucel (hydroxypropylcellulose) (HPC) 118 % of control | dose: 6.25 mg/kg/injection, schedule: Q01DX005 (ip), vehicle: Klucel (hydroxypropylcellulose) (HPC) 101 % of control | dose: 12.5 mg/kg/injection, schedule: Q01DX005 (ip), vehicle: Klucel (hydroxypropylcellulose) (HPC) 101 % of control

O=C(CCl)N/N=C(\Cc1ccccc1)c1ccccc1
inactive: [12] 97 % of control | [13] 98 % of control | dose: 400.0 mg/kg/injection, schedule: Q01DX009 (ip), vehicle: saline with Tween-80 103 % of control

Cn1cccc1/C=N/N1CC(=O)N(c2cccc(Cl)c2)CC1=O
inactive: [9] 100 % of control | [10] 97 % of control

CN(C)Cc1nsc(N(C)C)n1
inactive: [14] 100 % of control | [15] 97 % of control | [16] 93 % of control

Nc1ccccc1S(=O)(=O)Nc1c(N)nc(SCC(=O)O)[nH]c1=O
inactive: [4] 98 % of control and 101 % of control | [5] 100 % of control and 95 % of control | [6] 100 % of control and 95 % of control | dose: 120.0 mg/kg/injection, schedule: Q01DX005 (ip), vehicle: Klucel (hydroxypropylcellulose) (HPC) 87 % of control and 96 % of control | [17] 99 % of control and 98 % of control | dose: 240.0 mg/kg/injection, schedule: Q01DX005 (ip), vehicle: Klucel (hydroxypropylcellulose) (HPC) 98 % of control and 93 % of control

Cc1c(Cl)cccc1Nc1ncccc1C(=O)OCC(O)CO (stereo unspecified)
inactive: [9] 96 % of control | [10] 98 % of control | [11] 95 % of control

Cn1ccc(C#N)c(C#N)c1=O
inactive: dose: 25.0 mg/kg/injection, schedule: Q01DX005 (ip), vehicle: Klucel (hydroxypropylcellulose) (HPC) 97 % of control | [14] 99 % of control | [15] 106 % of control | [16] 97 % of control

NCC(S)c1ccc(Cl)cc1 (stereo unspecified)
inactive: dose: 12.5 mg/kg/injection, schedule: Q01DX001 (ip), vehicle: saline 100 % of control | dose: 25.0 mg/kg/injection, schedule: Q01DX001 (ip), vehicle: saline 100 % of control | dose: 50.0 mg/kg/injection, schedule: Q01DX001 (ip), vehicle: saline 100 % of control

O=C(Cl)C=Cc1ccc([N+](=O)[O-])cc1 (mixture of isomers)
inactive: [8] 104 % of control | [18] 94 % of control

COc1cccc(/C=C/C(=O)C(CN(C)C)CN(C)C)c1
inactive: dose: 6.25 mg/kg/injection, schedule: Q01DX005 (ip), vehicle: saline 100 % of control | dose: 12.5 mg/kg/injection, schedule: Q01DX005 (ip), vehicle: saline 106 % of control

Nc1cc(=O)n(Cc2ccccc2)c(N)c1C(=O)NCc1ccccc1
inactive: [6] 106 % of control | [17] 98 % of control | [7] 100 % of control

COc1nc(NC2OC(COC(C)=O)C(OC(C)=O)C(OC(C)=O)C2OC(C)=O)c2c(O)coc2n1 (stereo unspecified)
inactive: dose: 100.0 mg/kg/injection, schedule: Q01DX001 (ip), vehicle: saline with Tween-80 115 % of control | dose: 200.0 mg/kg/injection, schedule: Q01DX001 (ip), vehicle: saline with Tween-80 106 % of control | dose: 400.0 mg/kg/injection, schedule: Q01DX001 (ip), vehicle: saline with Tween-80 92 % of control

CCOCCC(=NC(C)(C)C)Nc1ccccc1C
inactive: [8] 107 % of control | [18] 115 % of control

Fc1ccccc1CSc1ncnc2nc[nH]c12
inactive: dose: 50.0 mg/kg/injection, schedule: Q01DX009 (ip), vehicle: saline with Tween-80 100 % of control | [12] 100 % of control | dose: 100.0 mg/kg/injection, schedule: Q04DX003 (ip), vehicle: saline with Tween-80 104 % of control | dose: 132.0 mg/kg/injection, schedule: Q04DX003 (ip), vehicle: saline with Tween-80 100 % of control | [13] 100 % of control

O=C1CC2C3C1N(c1ccc(Cl)cc1)C1(Nc4ccc(Cl)cc4)C(=O)CC(C31)N2c1ccc(Cl)cc1 (stereo unspecified)
inactive: dose: 7.5 mg/kg/injection, schedule: Q01DX005 (ip), vehicle: Klucel (hydroxypropylcellulose) (HPC) 104 % of control | dose: 15.0 mg/kg/injection, schedule: Q01DX005 (ip), vehicle: Klucel (hydroxypropylcellulose) (HPC) 101 % of control | dose: 30.0 mg/kg/injection, schedule: Q01DX005 (ip), vehicle: Klucel (hydroxypropylcellulose) (HPC) 92 % of control

CCOC(=O)CCN(CCN(C)C)c1cc(O)c2c(c1O)C(=O)c1ccccc1C2=O
inactive: [9] 121 % of control | [10] 120 % of control
